Patent US20220132849A1, “USE OF SPIROPIDION” (SYNGENTA CROP PROTECTION AG, priority 2019, published 2022)

Experiments:
[1] = Uptake from soil into tomato plants after drench, LC/MS of roots, stem and leaves; design: species or system Solanum lycopersicum Ailsa Craig; conditions: in vivo
Method: In a greenhouse at 20° C., tomato plants (Solanum lycopersicum Ailsa Craig at BBCH 12 growth stage) grown in 50% Jip 3 and 50% peat in 5″ pots were drenched (in five replicates) with 50 mL of a 100 ppm aqueous active ingredient solution (5 mg of active ingredient per plant) prepared from dilution of (i) a spiropidion SC300 formulation (SC=suspension concentrate), and (ii) commercially-available spirotetramat as a SC240 formulation. At four intervals post-treatment (1, 7, 14 and 21 days), tomato plants subjected to treatments (i) and (ii) were sectioned into roots, stem and separate leaf segments, washed and extracted with the quantification by liquid chromatography/mass spectrometry (LC/MS) of amounts (μg) of spiropidion and its dione (cide), and spirotetramat and its dione (cide).

selected pests = test: Soil drench on vegetable plants, overall comparison over crops and pests; format: in vivo; conditions: soil treatment at the same dose rate (10 mg ai/plant); range of vegetable crops and pests
Method: (§1) To the soil at the base of vegetable plants naturally infested with a population of a selected pest (refer Table 2) was applied by drench 30 to 100 mL per plant of an active ingredient (ai) solution at a dose rate of 10 mg ai/plant, wherein the solutions consisted of spiropidion or spirotetramat as active ingredient. Soil application was made 3 to 7 days after transplant in a nursery tray. Spiropidion was applied as a dilution of an SC300 formulation in water. Spirotetramat was applied as a dilution of an SC240 formulation in water. Mortality rates were recorded as a percentage against an untreated check plant and were evaluated at between 5 and 40 days after soil application.

Aphis gossypii = test: Soil drench on naturally infested vegetable plants, mortality; format: in vivo; conditions: soil drench 10 mg ai/plant, 5 to 40 days after application
Method: as §1

Bemisia tabaci = test: as above; format: in vivo; conditions: soil drench 10 mg ai/plant, 5 to 40 days after application
Method: as §1

Tetranychus urticae = test: as above; format: in vivo; conditions: soil drench 10 mg ai/plant, 5 to 40 days after application
Method: as §1

Thrips sp. = test: as above; format: in vivo; conditions: soil drench 10 mg ai/plant, 5 to 40 days after application
Method: as §1

[2] = test system: coffee leaf miner (Perileucoptera coffeella); test: Soil drench on naturally infested coffee plants, mortality; format: in vivo; conditions: 30 to 95 days after application, against untreated check plant
Method: To the soil surface at the base of separate coffee plants naturally infested with a population of coffee leaf miner (Perileucoptera coffeella) was applied as a drench 50 to 100 mL of an active ingredient (ai) solution at a dose rate of 390 mg ai/plant, wherein the active ingredient was spiropidion, or thiamethoxam as a commercial standard. Spiropidion was applied as a dilution of an SC300 formulation in water. Thiamethoxam was applied as a dilution of a WG25 formulation in water. Mortality rates were recorded as a pest control percentage against an untreated check plant and were evaluated at between 30 and 95 days after soil application of the respective active ingredients.

## CCOC(=O)OC1=C(c2c(C)cc(Cl)cc2C)C(=O)N(C)C12CCN(OC)CC2 [spiropidion]
[1]
  rate of uptake from the soil compared to spirotetramat: much greater rate of uptake from the soil
Selected pests
  mortality rates compared to spirotetramat: consistently higher

## CCOC(=O)OC1=C(c2cc(C)ccc2C)C(=O)N[C@]12CC[C@@H](OC)CC2 [spirotetramat]
Aphis gossypii; Test no. 8, Eggplant
  % Mortality rate against untreated plant: 71%
Aphis gossypii; Test no. 10, Cucumber
  % Mortality rate against untreated plant: 87%
Aphis gossypii; Test no. 15, Melon
  % Mortality rate against untreated plant: 63%
Aphis gossypii; Test no. 18, Squash
  % Mortality rate against untreated plant: 93%
Aphis gossypii; Test no. 19, Squash
  % Mortality rate against untreated plant: 84%
Bemisia tabaci; Test no. 3, Eggplant
  % Mortality rate against untreated plant: 68%
Bemisia tabaci; Test no. 4, Eggplant
  % Mortality rate against untreated plant: 93%
Bemisia tabaci; Test no. 5, Eggplant
  % Mortality rate against untreated plant: 76%
Bemisia tabaci; Test no. 6, Eggplant
  % Mortality rate against untreated plant: 91%
Bemisia tabaci; Test no. 7, Eggplant
  % Mortality rate against untreated plant: 96%
Bemisia tabaci; Test no. 14, Melon
  % Mortality rate against untreated plant: 64%
Bemisia tabaci; Test no. 16, Squash
  % Mortality rate against untreated plant: 83%
Bemisia tabaci; Test no. 17, Squash
  % Mortality rate against untreated plant: 42%
Bemisia tabaci; Test no. 20, Tomato
  % Mortality rate against untreated plant: 84%
Tetranychus urticae; Test no. 1, Eggplant
  % Mortality rate against untreated plant: 62%
Tetranychus urticae; Test no. 2, Eggplant
  % Mortality rate against untreated plant: 85%
Tetranychus urticae; Test no. 21, Hot pepper
  % Mortality rate against untreated plant: 45%
Thrips sp.; Test no. 9, Cucumber
  % Mortality rate against untreated plant: 90%
Thrips sp.; Test no. 11, Melon
  % Mortality rate against untreated plant: 70%
Thrips sp.; Test no. 12, Melon
  % Mortality rate against untreated plant: 90%
Thrips sp.; Test no. 13, Melon
  % Mortality rate against untreated plant: 64%
Thrips sp.; Test no. 22, Hot pepper
  % Mortality rate against untreated plant: 46%
Thrips sp.; Test no. 23, Sweet pepper
  % Mortality rate against untreated plant: 53%

## CN1COCN(Cc2cnc(Cl)s2)/C1=N\[N+](=O)[O-] [thiamethoxam]
[2]; Test no. 1, soil drench 390 mg ai/plant
  % Mortality rate: 39%
[2]; Test no. 2, soil drench 390 mg ai/plant
  % Mortality rate: 68%
[2]; Test no. 3, soil drench 390 mg ai/plant
  % Mortality rate: 81%
[2]; Test no. 4, soil drench 390 mg ai/plant
  % Mortality rate: 73%
[2]; Test no. 5, soil drench 390 mg ai/plant
  % Mortality rate: 38%
